From patent US8796313B2, “Substituted dihydroisoindolones as allosteric modulators of glucokinase” (Janssen Pharmaceutica N.V., priority 2005, dated 2014)

Biological target: T1, human pancreas Glucokinase (GK) (Homo sapiens, UniProt P35557)
T1 construct: His6; made in house; host or cells: Escherichia coli
T1 sequence (P35557 1-465): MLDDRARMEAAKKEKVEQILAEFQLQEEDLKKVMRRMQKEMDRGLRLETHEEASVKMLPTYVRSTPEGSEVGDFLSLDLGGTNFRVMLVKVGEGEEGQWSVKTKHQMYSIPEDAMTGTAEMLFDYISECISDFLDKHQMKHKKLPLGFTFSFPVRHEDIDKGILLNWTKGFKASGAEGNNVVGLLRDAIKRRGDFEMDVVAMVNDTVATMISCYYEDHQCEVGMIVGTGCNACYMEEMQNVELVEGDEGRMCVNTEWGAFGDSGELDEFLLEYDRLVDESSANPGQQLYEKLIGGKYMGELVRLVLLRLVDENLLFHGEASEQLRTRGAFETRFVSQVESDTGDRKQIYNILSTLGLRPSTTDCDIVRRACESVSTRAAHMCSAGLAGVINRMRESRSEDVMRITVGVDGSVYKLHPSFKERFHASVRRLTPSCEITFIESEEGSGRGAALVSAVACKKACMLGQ
Experiment: Glucokinase enzyme assay, pancreas GK
Type: biochemical
Settings: for EC50: concentration that produces 50% activation above vehicle control; for EC100%: concentration that produces 100% activation above vehicle control; for activation at 50 µM: increase in GK activity above vehicle control, compound 50 μM, 12 mM glucose
Excerpt: An enzymatic Glucokinase (GK) assay using purified recombinant human liver/pancreas enzyme was used to evaluate the effects of potential small molecule modulators.
In this assay, GK catalyzes glucose phosphorylation in the presence of ATP. The product of this reaction, glucose-6-phosphate, was then oxidized by an excess of glucose-6-phosphate dehydrogenase to produce gluconate-6-phosphate with concomitant reduction of nicotinamide adenine dinucleotide (NAD). […] Human GK (Liver/Pancreas) was expressed in Escherichia coli as a (His) 6-tagged fusion protein and was purified by metal chelate affinity chromatography. The assay was performed in a final incubation volume of 80 μl in a 96-well clear low UV absorption plates. The incubation mixture consisted of 25 mM HEPES, 2 mM MgSO4, 1 mM dithiothreotol (DTT), 1 mg/mL bovine serum albumin (BSA), 1 mM ATP, 1 mM NAD, and 12 mM glucose, 10 units per mL glucose-6-phosphate dehydrogenase, and +/−300 ng per mL GK. For determination of the affinity (Km) and Vmax, different concentrations of glucose ranging from 0.5 mM to 40 mM were used in the assay; see Grimsby, J., Sarabu, R.; Grippo, J. F.; et. al. Science 2003, 301, 370-373. […] EC50% (μM) was calculated as the effective concentration of the compound that produces 50% activation above the vehicle control, and EC100% (μM) was calculated as the effective concentration of the compound that produces 100% activation above the vehicle control.

EC50 [nM]	EC100% [µM]	activation at 50 µM [%]	% Activation @ 5 μM (cell states @ 5 μM instead of the head's 50 μM)	SMILES
3900	15	153		O=C(CCC1c2ccccc2C(=O)N1Cc1ccc(F)cc1)Nc1ccc(C(=O)O)cn1 (stereo not drawn) [Compound 7, 6-{3-[2-(4-Fluoro-benzyl)-3-oxo-2,3-dihydro-1H-isoindol-1-yl]-propionylamino}-nicotinic acid]
13	0.39	147		O=C(CCC1c2c(F)cccc2C(=O)N1Cc1ccc(F)cc1)Nc1ccc(Br)cn1 (stereo not drawn) [Compound 32, N-(5-Bromo-pyridin-2-yl)-3-[7-fluoro-2-(4-fluoro-benzyl)-3-oxo-2,3-dihydro-1H-isoindol-1-yl]-propionamide]
54	0.225	259		CC(=O)c1ccc(NC(=O)CCC2c3c(F)cccc3C(=O)N2Cc2ccc(F)cc2)nc1 (stereo not drawn) [Compound 37, N-(5-Acetyl-pyridin-2-yl)-3-[7-fluoro-2-(4-fluoro-benzyl)-3-oxo-2,3-dihydro-1H-isoindol-1-yl]-propionamide]
54	0.48	191		Cc1ccc(NC(=O)CCC2c3c(F)cccc3C(=O)N2Cc2ccc(F)cc2)nc1 (stereo not drawn) [Compound 41, 3-[7-Fluoro-2-(4-fluoro-benzyl)-3-oxo-2,3-dihydro-1H-isoindol-1-yl]-N-(5-methyl-pyridin-2-yl)-propionamide]
		38.6		COC(=O)c1ccc(NC(=O)CC[C@@H]2c3c(F)cccc3C(=O)N2Cc2ccc(F)cc2)nc1 [Compound 50, (R)-6-{3-[7-Fluoro-2-(4-fluoro-benzyl)-3-oxo-2,3-dihydro-1H-isoindol-1-yl]-propionylamino}-nicotinic acid methyl ester]
17000		62.8		CS(=O)(=O)c1ccc(NC(=O)CCC2c3c(F)cccc3C(=O)N2Cc2ccc(F)cc2)nc1 (stereo not drawn) [Compound 48, 3-[7-Fluoro-2-(4-fluoro-benzyl)-3-oxo-2,3-dihydro-1H-isoindol-1-yl]-N-(5-methanesulfonyl-pyridin-2-yl)-propionamide]
60	0.34	212		CN(C)c1ccc(CN2C(=O)c3cccc(F)c3C2CCC(=O)Nc2ccc(C(=O)O)cn2)cc1 (stereo not drawn) [Compound 49, 6-{3-[2-(4-Dimethylamino-benzyl)-7-fluoro-3-oxo-2,3-dihydro-1H-isoindol-1-yl]-propionylamino}-nicotinic acid]
71	0.375		168 @ 5 μM %	O=C(CCC1c2c(F)cccc2C(=O)N1Cc1ccc(F)cc1)Nc1ccc(Cl)cn1 (stereo not drawn) [Compound 44, N-(5-Chloro-pyridin-2-yl)-3-[7-fluoro-2-(4-fluoro-benzyl)-3-oxo-2,3-dihydro-1H-isoindol-1-yl]-propionamide]
67	0.128	229		O=C(CCC1c2c(F)cccc2C(=O)N1Cc1ccc(F)cc1)Nc1ccc(C(=O)O)cn1 (stereo not drawn) [Compound 11, 6-{3-[7-Fluoro-2-(4-fluoro-benzyl)-3-oxo-2,3-dihydro-1H-isoindol-1-yl]-propionylamino}-nicotinic acid]
8.9	0.082	223		COC(=O)c1ccc(NC(=O)CC[C@H]2c3c(F)cccc3C(=O)N2Cc2ccc(F)cc2)nc1 [Compound 51, (S)-6-{3-[7-Fluoro-2-(4-fluoro-benzyl)-3-oxo-2,3-dihydro-1H-isoindol-1-yl]-propionylamino}-nicotinic acid methyl ester]
25	0.46	173		COC(=O)c1ccc(NC(=O)CCC2c3c(F)cccc3C(=O)N2Cc2ccc(F)cc2)nc1 (stereo not drawn) [Compound 26, 6-{3-[7-Fluoro-2-(4-fluoro-benzyl)-3-oxo-2,3-dihydro-1H-isoindol-1-yl]-propionylamino}-nicotinic acid methyl ester]

Continued, compound first:

SMILES	EC50 [nM]	EC100% [µM]	activation at 50 µM [%]	% Activation @ 5 μM (cell states @ 5 μM instead of the head's 50 μM)
O=C(Nc1ccccn1)OCCC1c2c(F)cccc2C(=O)N1Cc1ccc(F)cc1 (stereo not drawn) [Compound 16, Pyridin-2-yl-carbamic acid 2-[7-fluoro-2-(4-fluoro-benzyl)-3-oxo-2,3-dihydro-1H-isoindol-1-yl]-ethyl ester]			13.8	
O=C(CCC1c2c(F)cccc2C(=O)N1Cc1ccc(F)cc1)Nc1cccc[n+]1[O-] (stereo not drawn) [Compound 40, 3-[7-Fluoro-2-(4-fluoro-benzyl)-3-oxo-2,3-dihydro-1H-isoindol-1-yl]-N-(1-oxy-pyridin-2-yl)-propionamide]			52.3	
O=C(CCC1c2c(F)cccc2C(=O)N1Cc1ccc(-n2cccc2)cc1)Nc1ccc(F)cn1 (stereo not drawn) [Compound 42, 3-[7-Fluoro-3-oxo-2-(4-pyrol-1-yl-benzyl)-2,3-dihydro-1H-isoindol-1-yl]-N-(5-fluoro-pyridin-2-yl)-propionamide]	182	1.7	168	
O=C(CCC1c2c(F)cccc2C(=O)N1Cc1ccc(F)cc1)Nc1ncc(Br)s1 (stereo not drawn) [Compound 27, N-(5-Bromo-thiazol-2-yl)-3-[7-fluoro-2-(4-fluoro-benzyl)-3-oxo-2,3-dihydro-1H-isoindol-1-yl]-propionamide]	40000		65	
COc1ccc(CN2C(=O)c3ccccc3C2COC(=O)Nc2ccccn2)cc1 (stereo not drawn) [Compound 19, Pyridin-2-yl-carbamic acid 2-(4-methoxy-benzyl)-3-oxo-2,3-dihydro-1H-isoindol-1-ylmethyl ester]	4800	70	115	
O=C(Nc1ccccn1)OCCC1c2cccc(F)c2C(=O)N1Cc1ccc(F)cc1 (stereo not drawn) [Compound 17, Pyridin-2-yl-carbamic acid 2-[4-fluoro-2-(4-fluoro-benzyl)-3-oxo-2,3-dihydro-1H-isoindol-1-yl]-ethyl ester]			23.8	
O=C(CC1c2ccccc2C(=O)N1Cc1ccc(F)cc1)Nc1ccc(C(=O)O)cn1 (stereo not drawn) [Compound 6, 6-{2-[2-(4-Fluoro-benzyl)-3-oxo-2,3-dihydro-1H-isoindol-1-yl]-acetylamino}-nicotinic acid]			7.92	
O=C(CCC1c2c(F)cccc2C(=O)N1Cc1ccc(F)cc1)Nc1cnccn1 (stereo not drawn) [Compound 13, 3-[7-Fluoro-2-(4-fluoro-benzyl)-3-oxo-2,3-dihydro-1H-isoindol-1-yl]-N-pyrazin-2-yl-propionamide]	240	0.88	272	
O=C(CCC1c2c(F)cccc2C(=O)N1Cc1ccc(F)cc1)Nc1ccc(-c2ccccc2)cn1 (stereo not drawn) [Compound 31, 3-[7-Fluoro-2-(4-fluoro-benzyl)-3-oxo-2,3-dihydro-1H-isoindol-1-yl]-N-(5-phenyl-pyridin-2-yl)-propionamide]	1900	300	64.1	
O=C(CCC1c2c(F)cccc2C(=O)N1Cc1ccc(F)cc1)Nc1ccc(Cl)nn1 (stereo not drawn) [Compound 43, N-(6-Chloro-pyridazin-3-yl)-3-[7-fluoro-2-(4-fluoro-benzyl)-3-oxo-2,3-dihydro-1H-isoindol-1-yl]-Propionamide]	629	5.2	152	
COc1ccc(CN2C(=O)c3ccccc3C2CCC(=O)Nc2ccc(C(=O)O)cn2)cc1 (stereo not drawn) [Compound 8, 6-{3-[2-(4-Methoxy-benzyl)-3-oxo-2,3-dihydro-1H-isoindol-1-yl]-propionylamino}-nicotinic acid]	3200	11	167	
O=C(CCC1c2c(F)cccc2C(=O)N1Cc1ccc(F)cc1)Nc1ccc(-c2ccc(F)cc2)cn1 (stereo not drawn) [Compound 33, 3-[7-Fluoro-2-(4-fluoro-benzyl)-3-oxo-2,3-dihydro-1H-isoindol-1-yl]-N-[5-(4-fluoro-Phenyl)-pyridin-2-yl]-propionamide]	488	4.5	177	
COCOCc1ccc(NC(=O)CCC2c3c(F)cccc3C(=O)N2Cc2ccc(F)cc2)nc1 (stereo not drawn) [Compound 30, 3-[7-Fluoro-2-(4-fluoro-benzyl)-3-oxo-2,3-dihydro-1H-isoindol-1-yl]-N-(5methoxymethoxymethyl-pyridin-2-yl)-propionamide]	230	1.2	175	
O=C(CCC1c2c(F)cccc2C(=O)N1Cc1ccc(F)cc1)Nc1cc2ccccc2cn1 (stereo not drawn) [Compound 29, 3-[7-Fluoro-2-(4-fluoro-benzyl)-3-oxo-2,3-dihydro-1H-isoindol-1-yl]-N-isoquinolin-3-yl-propionamide]	46	0.32	212	
